# According to patent US11345694B2, “Antibacterial compounds” (DISCUVA LTD., priority 2017, dated 2022):
# How the values were obtained:
# [1] = system: E. coli NCTC 13441 (UPEC); test: MIC broth microdilution; format: cell-based, Escherichia coli; settings: Escherichia coli, NCTC13441
# Procedure: (§1) Minimum Inhibitory Concentrations (MICs) versus planktonic bacteria are determined by the broth microdilution procedure according to the guidelines of the Clinical and Laboratory Standards Institute (Clinical and Laboratory Standards Institute. Methods for Dilution Antimicrobial Susceptibility Tests for Bacteria That Grow Aerobically; Approved Standard-tenth Edition. CLSI document M07-A10, 2015). The broth dilution method involves a two-fold serial dilution of compounds in 96-well microtitre plates, giving a final concentration range of 0.39-200 μM and a maximum final concentration of 2% DMSO. The bacterial strains tested include Escherichia coli K12 (EC), E. coli NCTC 13441 (UPEC), Staphylococcus aureus ATCC 35556 (SA), Acinetobacter baumannii ATCC 17978 (AB), Pseudomonas aeruginosa ATCC 33359 (PA), Enterobacter cloacae DSM 30054 (Ed), Serratia marcescens SL1344 (Sm), Salmonella typhimurium XNAA5 (St), Klebsiella pneumoniae ATCC 10031 (KP2), K. pneumoniae NCTC 13438 (KP1), K. pneumoniae ATCC 700603 (KP3), Klebsiella pneumoniae ATCC 51504 (KP4), K. pneumoniae H154680676 (KP5), K. pneumoniae H154020667 (KP6), K. pneumoniae H154640784 (KP7), K. pneumoniae H154600588 (KP8), K. pneumoniae H154300688 (KP9), K. pneumoniae H151440671 (KP10). Strains are grown in cation-adjusted Müller-Hinton broth or on Luria Bertoni agar at 37° C. in an ambient atmosphere. The MIC is determined as the lowest concentration of compound that inhibits growth following a 20-24 hour incubation period.
# [2] = system: Escherichia coli K12 (EC); test: MIC broth microdilution; format: cell-based
# Procedure: as §1
# [3] = system: Klebsiella pneumoniae ATCC 10031 (KP2); test: MIC broth microdilution; format: cell-based; settings: ATCC10031
# Procedure: as §1
# [4] = system: Acinetobacter baumannii ATCC 17978 (AB); test: MIC broth microdilution; format: cell-based; settings: ATCC17978
# Procedure: as §1
# [5] = system: Staphylococcus aureus ATCC 35556 (SA); test: MIC broth microdilution; format: cell-based; settings: ATCC35556
# Procedure: as §1
# [6] = system: Pseudomonas aeruginosa ATCC 33359 (PA); test: MIC broth microdilution; format: cell-based; settings: ATCC33359
# Procedure: as §1
# [7] = system: K. pneumoniae NCTC 13438 (KP1); test: MIC broth microdilution; format: cell-based, Klebsiella pneumoniae; settings: Klebsiella pneumoniae, NCTC13438
# Procedure: as §1
# [8] = system: human hepatocarcinoma cell line ATCC HB-8065 (HepG2); test: Human cell viability (CellTiter-Glo); format: cell-based; settings: Homo sapiens; HepG2 cells, 24 h incubation, CellTiter-Glo luminescence, 0.2-100 μM; read-out: IC50 values against the HepG2 cell line
# Procedure: Compounds are assessed for potential non-specific cytotoxic effects against the human hepatocarcinoma cell line ATCC HB-8065 (HepG2). HepG2 cells are seeded at 20,000 cells/well in 96-well microtitre plates in minimal essential medium (MEM) supplemented with a final concentration of 10% FBS. After 24 h, compound dilutions are prepared in MEM supplemented with a final concentration of 1% FBS, and added to the cells. Compounds are tested in two-fold serial dilutions over a final concentration range of 0.2-100 μM in a final DMSO concentration of 1% vol/vol. Thioridazine is used as a positive control. Cells are incubated with compound at 37° C. and 5% CO2 for a further 24 h, after which time the CellTiter-Glo reagent (Promega) is added. Luminescence is measured on a Perkin Elmer Envision plate reader. Data are analysed using a 4 parameter logistic regression to determine the concentration of compound that inhibits cell viability by fifty percent (IC50).
Structure (SMILES),MIC [1] [µM],MIC [2] [µM],MIC [3] [µM],MIC [4] [µM],MIC [5] [µM],MIC [6] [µM],MIC [7] [µM],IC50 [8] [µM]
"Cc1cc(-c2nc(N)[nH]c2-c2ccc(O)c(F)c2)ccn1 [Example 15, 4-(2-Amino-4-(2-methylpyridin-4-yl)-1H-imidazol-5-yl)-2-fluorophenol]",1 to 10,10 to 100,≤ 1,> 100,> 100,> 100,10 to 100,> 100
"CCOc1ccc(-c2[nH]c(N)nc2-c2ccnc(C)c2)cc1F [Example 17, 5-(4-Ethoxy-3-fluorophenyl)-4-(2-methylpyridin-4-yl)-1H-imidazol-2-amine]",1 to 10,1 to 10,≤ 1,> 100,> 100,> 100,10 to 100,> 100
"Nc1nc(-c2ccc3c(c2)OCCO3)c(-c2cc[nH]c(=O)c2)[nH]1 [Example 18, 4-(2-Amino-4-(2,3-dihydrobenzo[b][1,4]dioxin-6-yl)-1H-imidazol-5-yl)pyridin-2(1H)-one]",10 to 100,10 to 100,1 to 10,> 100,> 100,> 100,> 100,> 100
"Cc1cc(-c2[nH]c(N)nc2-c2ccc(OC(F)(F)F)cc2)ccn1 [Example 20, 5-(2-Methylpyridin-4-yl)-4-(4-(trifluoromethoxy)phenyl)-1H-imidazol-2-amine]",1 to 10,1 to 10,≤ 1,> 100,> 100,> 100,10 to 100,25 to 100
"COc1cccc(-c2nc(N)[nH]c2-c2ccnc(C)c2)c1 [Example 25, 4-(3-Methoxyphenyl)-5-(2-methylpyridin-4-yl)-1H-imidazol-2-amine]",10 to 100,10 to 100,≤ 1,> 100,> 100,> 100,10 to 100,> 100
"Cc1cc(-c2[nH]c(N)nc2-c2ccc3nccnc3c2)ccn1 [Example 31, 5-(2-Methylpyridin-4-yl)-4-(quinoxalin-6-yl)-1H-imidazol-2-amine]",1 to 10,1 to 10,≤ 1,> 100,> 100,> 100,10 to 100,> 100
"Cc1cc(-c2[nH]c(N)nc2-c2ccc3c(c2)NC(=O)C(C)O3)ccn1 (stereo not drawn) [Example 33, 6-(2-Amino-5-(2-methylpyridin-4-yl)-1H-imidazol-4-yl)-2-methyl-2H-benzo[b][1,4]oxazin-3(4H)-one]",1 to 10,1 to 10,≤ 1,> 100,> 100,> 100,10 to 100,> 100
"Cc1cc(-c2[nH]c(N)nc2-c2ccc3c(c2)NCC(C)O3)ccn1 (stereo not drawn) [Example 34, 4-(2-Methyl-3,4-dihydro-2H-benzo[b][1,4]oxazin-6-yl)-5-(2-methylpyridin-4-yl)-1H-imidazol-2-amine]",1 to 10,1 to 10,≤ 1,> 100,> 100,> 100,1 to 10,> 100
"Cc1cc(-c2[nH]c(N)nc2-c2ccc(OCC#N)cc2)ccn1 [Example 35, 2-(4-(2-Amino-5-(2-methylpyridin-4-yl)-1H-imidazol-4-yl)phenoxy)acetonitrile]",1 to 10,1 to 10,≤ 1,> 100,> 100,> 100,10 to 100,> 100
"Cc1cc(-c2[nH]c(N)nc2-c2ccc3c(c2)NCCO3)cc(C)n1 [Example 36, 4-(3,4-Dihydro-2H-benzo[b][1,4]oxazin-6-yl)-5-(2,6-dimethylpyridin-4-yl)-1H-imidazol-2-amine]",≤ 1,1 to 10,≤ 1,> 100,> 100,> 100,1 to 10,> 100
"Cc1cc(-c2[nH]c(N)nc2-c2ccc3oc(C)nc3c2)ccn1 [Example 37, 4-(2-Methylbenzo[d]oxazol-5-yl)-5-(2-methylpyridin-4-yl)-1H-imidazol-2-amine]",1 to 10,1 to 10,≤ 1,> 100,> 100,> 100,10 to 100,> 100
"Nc1nc(-c2ccc3c(c2)CCO3)c(-c2ccncc2)[nH]1 [Example 38, 4-(2,3-Dihydrobenzofuran-5-yl)-5-(pyridin-4-yl)-1H-imidazol-2-amine]",≤ 1,≤ 1,≤ 1,> 100,> 100,> 100,1 to 10,> 100
"Nc1nc(-c2ccc3c(c2)NCCO3)c(-c2ccncc2)[nH]1 [Example 39, 4-(3,4-Dihydro-2H-benzo[b][1,4]oxazin-6-yl)-5-(pyridin-4-yl)-1H-imidazol-2-amine]",≤ 1,≤ 1,≤ 1,> 100,> 100,> 100,10 to 100,> 100
"CNc1cc(-c2[nH]c(N)nc2-c2ccc3c(c2)NCCO3)ccn1 [Example 40, 4-(2-Amino-4-(3,4-dihydro-2H-benzo[b][1,4]oxazin-6-yl)-1H-imidazol-5-yl)-N-methylpyridin-2-amine]",≤ 1,1 to 10,≤ 1,> 100,> 100,> 100,1 to 10,> 100
"Nc1cc(-c2[nH]c(N)nc2-c2ccc3c(c2)NCCO3)ccn1 [Example 42, 4-(2-Amino-4-(3,4-dihydro-2H-benzo[b][1,4]oxazin-6-yl)-1H-imidazol-5-yl)pyridin-2-amine]",1 to 10,1 to 10,≤ 1,> 100,> 100,> 100,10 to 100,> 100
